Assay: Oral absorbability of various complexes: curcumin concentration in blood plasma after forced oral administration
Format: in vivo
Settings: SD rats, curcumin dose 10 mg/kg
Description: (Oral Absorbability of Various Complexes)
For the test animal, 6-week old SD rats (male, body weight: 170 g to 260 g, Charles River Laboratories Japan, Inc.) were used.
In regard to the administration method, the various complexes (Examples 1 to 13) produced as described above were each added to water for injection in a predetermined amount, subsequently the mixture was made up to 20 mL so as to obtain a curcumin concentration of 1 mg/mL, the mixture was mixed using an ultrasonic generator, and the mixture was forcibly orally administered to test animals (n 3 or 5) that had been fasted for 12 hours or longer before administration, using a feeding needle, such that the curcumin dose would be 10 mg/kg (Administration Test Examples 1 to 13) or 50 mg/kg (Administration Test Example 14).
Meanwhile, the cases of administering curcumin base powder (Comparative Test Example 1); physical mixture obtained by simply physically mixing curcumin base powder and hydroxypropylmethyl cellulose powder or hydroxypropyl cellulose powder (curcumin:HPMC=1:3 or curcumin HPC=1:3) (Comparative Test Examples 2 and 3); or CR-031P powder (manufactured by Theravalues Corp.), which is a turmeric dye composition obtained by combining micronized curcuminoid with gum ghatti (Comparative Test Examples 4 and 5) was designated as controls.
For the measurement of the concentration of curcumin and/or an analog thereof in blood plasma, measurement was made by the following method, using heparinized blood plasma obtained by collecting about 0.5 mL of blood from the jugular vein of the test animals without anesthesia, after 30 minutes, 1 hour, and 2 hours from the initiation of administration.
100 μL of 0.1 M acetate buffer solution (pH 5.0) and 10 μL of β-glucuronidase solution (about 68,000 units/mL) were added to 20 μL of the collected blood plasma, and the mixture was maintained for 1 hour at 37° C. Subsequently, 10 μL of 50% (v/v) methanol including 20 ng/mL of mepronil, which was an internal standard liquid, and 0.5 mL of chloroform were added thereto, the mixture was stirred for 1 minute using a vortex mixer, and then the mixture was mixed for 15 minutes using an ultrasonic generator. An extraction-treated liquid thus prepared was separated into chloroform layer and an aqueous layer by centrifugation (13,000×g, for 5 minutes, at room temperature). This extraction treatment was repeated two times. Subsequently, the chloroform layer was collected, and the solvent was distilled off from this layer using a vacuum centrifugal concentrator to solid-dry the chloroform layer. 100 μL of 50% (v/v) methanol was added thereto, and then the mixture was centrifuged (13,000×g, for 5 minutes, at room temperature) to collect the supernatant.
2 μL of the supernatant produced as described above was subjected to an analysis using LC-MS/MS (manufactured by Shimadzu Corp.), and thereby the curcumin concentration in the blood plasma was measured. The conditions for the LC-MS/MS analysis were set such that the LC column was ATLANTIS T3 (2.1×150 mm, 3 μm, manufactured by Waters Corp.), the column temperature was 40° C., the flow rate was 0.2 mL/min, and the mobile phase included A: 0.1% aqueous solution of formic acid, and B: 0.1% formic acid/acetonitrile, and gradient elution was performed under the following conditions. […]

AUC (0 to 2 h): 33.9 ng/mL · 0-2 h | Cmax (male, rat, plasma): 49.8 ng/mL | concentration at 0.5 h (male, rat, plasma, 0.5 h after administration): 7.8 ng/mL | concentration at 1 h (male, rat, plasma, 1 h after administration): 17.2 ng/mL | concentration at 2 h (male, rat, plasma, 2 h after administration): 34.2 ng/mL
Structure (SMILES): COc1cc(/C=C/C(=O)/C=C(O)/C=C/c2ccc(O)c(OC)c2)ccc1O [Curcumin base powder, curcumin]

— US10245238B2, “Composition for oral intake” (THERAVALUES CORPORATION, priority 2014, dated 2019)
